Assay results as given in patent US20150306232A1, “HYDROGELATORS COMPRISING D-AMINO ACIDS” (BRANDEIS UNIVERSITY, priority 2012, published 2015).

Key:
[1] = in vitro release of hydrogelators from hydrogels; format: physicochemical; settings: 0.8 wt % hydrogel, PBS pH 7.4, 37° C., after 24 hours
Experimental: After studying their drug efficacies, the sustained release of Npx-containing hydrogelators from 0.8 wt % of hydrogels was studied. We incubated 100 μL of hydrogels at 37° C. for 24 hours with 100 μL of PBS buffer solution (pH 7.4), which is refreshed and monitored at 1 h, 2 h, 4 h, 8 h, 12 h, and 24 h. […] After 24 hours, hydrogel 1 slowly and steadily released 6.5% of the hydrogelator. […] Hydrogels 5 and 6 release 35.8% and 31.7% of hydrogelators after 24 h.
To illustrate the in vitro release profile of hydrogelators, we prepared 100 μL of the hydrogels formed by 1 (0.8 wt %, pH 4.0), 2 (0.8 wt %, pH 7.6), 3 (0.8 wt %, pH 7.6), 4 (0.8 wt %, pH 7.6), 5 (0.8 wt %, pH 7.0), and 6 (0.8 wt %, pH 7.0). With the addition of PBS buffer (100 μL, pH 7.4) onto the surface of hydrogels, the gels were incubated at 37° C. for 24 hours. The release solutions (100 μL) were taken and refreshed at […], 2 h, 4 h, 8 h, 12 h, and 24 h, which were detected by analytical HPLC at 276 nm for the quantities of released Npx containing hydrogelators 1, 2, 3, 4, 5, and 6.

HeLa cells = test: MTT cytotoxicity of Npx containing hydrogelators; format: cell-based
Experimental: The HeLa cells in good condition were seeded into 96-well plate (2×10^5 cells/well) in 100 μL of MEM medium with 10% FBS. With 12 hours of incubation at 37° C. and 5% CO2, the HeLa cells were attached to bottom of 96-well plate. Then the medium was replaced by another 100 μL of growth medium that contained serial diluents of our compounds and the cells were incubated at 37° C. and 5% CO2 for additional 72 hours. The compounds were stocked at 10 μM in DMSO, followed by further dilutions with MEM medium. All of these serial diluents were adjusted to contain 0.5% of DMSO.

[2] = rheological measurement of Npx containing hydrogels; format: physicochemical; settings: hydrogel 0.8 wt %
Experimental: Rheological tests were conducted on TA ARES G2 rheometer with TA Orchestrator Software. 25 mm cone-plate was used during the experiment. 0.2 mL of hydrogel sample was placed on the cone-plate.
The measurement performs at the frequency of 6.28 rad/s (0.1 to 10% strain, frequency=10 rads^−1, 10 points per decade). Sweep mode is “log” and temperature was carried out at 25° C. The critical strain (γc) value was determined from the storage-strain profiles of the hydrogel sample. The strain applied to the hydrogel sample increased from 0.1 to 100% (10 rad/s and 25° C.). Over a certain strain, a drop in the elastic modulus was observed, and the strain amplitude at which storage moduli just begins to decrease by 5% from its maximum value was determined and taken as a measure of the critical strain of the hydrogels, which correspond to the breakdown of the cross-linked network in the hydrogel sample.
The frequency ranges from 200 rad/s to 0.1 rad/s, depending on the viscoelastic properties of each sample. A suitable strain was used to ensure the linearity of dynamic viscoelasticity.

hydrogelator released from hydrogel [1]: 8.0%
critical strain [2]: 1.6%
storage modulus G′ ([2]; 6.28 rad/s): 6.2×10^2 Pa
SMILES: COc1ccc2cc([C@H](C)C(=O)N[C@H](Cc3ccccc3)C(=O)N[C@H](Cc3ccccc3)C(=O)N[C@H](Cc3ccc(O)cc3)C(=O)O)ccc2c1 [compound 2, Npx-ffy]
cell proliferation based on the numbers of HeLa cells (HeLa cells): no promotion of the cell proliferation
